Source: patent US8519110B2, “mRNA cap analogs” (Board of Supervisors of Louisiana State University And …, priority 2008, dated 2013)

Legend:
eIF4E = eIF4E (Mus musculus, UniProt P63073); test: Binding affinity of cap analogs to eIF4E by fluorescence titration; conditions: equilibrium association constant; for Cap analog/eIF4E affinity (KAS): 20 °C, pH 7.2, ionic strength 150 mM
Experimental: Fluorescence titration measurements were carried out on an LS-50B or LS-55 spectrofluorometer (Perkin Elmer Co.) at 20.0±0.2° C. in 50 mM HEPES/KOH (pH 7.2), 0.5 mM EDTA, and 1 mM DTT, with ionic strength adjusted to 150 mM by addition of KCl. Various cap analogue solutions, of increasing concentration, were added in 1 μl aliquots to 1.4 ml of 0.1 or 0.2 μM protein solutions. Fluorescence intensities were measured with excitation at 280 nm or 295 nm with 2.2 nm bandwidth, and detection at 337 nm with 4 nm bandwidth and a 290-nm cut-off filter. The data were corrected for sample dilution and inner filter effects. Equilibrium association constants (Kas) were determined by fitting the theoretical dependence of fluorescence intensity on cap analog concentration to the experimental data, as otherwise described in A. Niedźwiecka et al., “Biophysical studies of eIF4E cap-binding protein: recognition of mRNA 5′ cap structure and synthetic fragments of eIF4G and 4E-BP1 proteins,” J. Mol. Biol., vol. 312, pp. 615-635 (2002). The concentration of protein was allowed to be a free parameter in the equilibrium equation, to determine the amount of “active” protein. The final Kas was calculated as a weighted average of three to ten independent titrations, with the weights taken as the reciprocals of the squares of the numerical standard deviations. Numerical nonlinear least-square regression analysis was performed using ORGIN 6.0 (Microcal Software Inc., USA).
The binding affinities of eukaryotic eIF4E for various cap analogs were determined by fluorescence quenching. This biophysical test allows one to predict the potential efficacy of cap analogs in translation. Those having higher affinities for eIF4E than the unmodified cap analog (m^7GpppG) are expected to be better recognized by the translational machinery, leading to higher translational efficiencies. They also are expected to compete more effectively with unmodified mRNA when free cap dinucleotides are used to inhibit translation. See generally E. Grudzien-Nogalska et al., “Synthesis of anti-reverse cap analogs (ARCAs) and their applications in mRNA translation and stability,” Methods Enzymol., vol. 431, pp. 203-227 (2007).

Human DcpS = target: T1, Human DcpS (Homo sapiens, UniProt Q96C86); test: Assay of susceptibility to DcpS (RP HPLC); format: biochemical
T1 construct: made in house; host or cells: Escherichia coli
T1 sequence (Q96C86 1-337): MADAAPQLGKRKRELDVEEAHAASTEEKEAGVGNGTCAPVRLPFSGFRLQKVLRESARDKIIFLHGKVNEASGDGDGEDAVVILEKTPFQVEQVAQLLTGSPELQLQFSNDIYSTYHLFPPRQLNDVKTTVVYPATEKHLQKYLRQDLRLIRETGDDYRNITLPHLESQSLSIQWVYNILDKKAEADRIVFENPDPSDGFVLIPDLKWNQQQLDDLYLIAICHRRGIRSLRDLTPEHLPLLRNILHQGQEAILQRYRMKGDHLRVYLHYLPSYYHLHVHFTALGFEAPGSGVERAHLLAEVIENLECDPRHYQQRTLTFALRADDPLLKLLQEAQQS
Experimental: Human DcpS was expressed in Escherichia coli as described in L. Cohen et al., “Nematode m^7GpppG and m3^2,2,7GpppG decapping: activities in Ascaris embryos and characterization of C. elegans scavenger DcpS,” RNA, vol. 10, pp. 1609-1624 (2004). A 15 μM solution of the protein in 20 mM Tris buffer, pH 7.5, containing 50 mM KCl, 0.2 mM EDTA, 1 mM DTT, 0.5 mM PMSF, and 20% glycerol was stored at −80° C. until used. Enzymatic reactions were carried out at 30° C. in 500 μl of 50 mM Tris-HCl, pH 7.9, containing 20 mM MgCl2 and 60 mM (NH4)2SO4. A 40 μM solution of the selected cap analog was treated with 5.0 μl of DcpS for 120 min. At times of 10, 30, 60, and 120 min, a 100-μl sample was collected from the reaction mixture and deactivated by incubation at 90° C. for 2 min. Samples were analyzed without further treatment by analytical RP HPLC with a linear gradient of methanol in 0.1 M KH2PO4, pH 6.0, from 0-50% over 15 min.

[1] = test system: rabbit reticulocyte lysate system; test: In vitro translation efficiency of capped luciferase mRNA with 31-base poly(A) tail, method II transcripts; format: biochemical; conditions: for Translation efficiency in comparison to m^7GpppG-LUC-(A)31 mRNA, Experiment No. 4: experiment 4; for Translation efficiency in comparison to m^7GpppG-LUC-(A)31 mRNA, Experiment No. 5: experiment 5; for Translation efficiency in comparison to m^7GpppG-LUC-(A)31 mRNA, Mean: mean of experiments
Experimental: Capped, polyadenylated luciferase mRNAs were synthesized in vitro by PCR from a dsDNA template that contained the SP6 promoter, the 5′-UTR sequence of rabbit β-globin mRNA, the entire firefly luciferase coding region, and 31 adenosine residues. A typical transcription reaction mixture (40 μl) contained SP6 transcription buffer (Fermentas), 0.7 ug of DNA template, 1 U/μl RiboLock Ribonuclease Inhibitor (Fermentas), 0.5 mM each of ATP, CTP, and UTP, 0.1 mM GTP, and 0.5 mM dinucleotide cap analog. The reaction mixture was incubated at 37° C. for 5 min before addition of SP6 RNA polymerase (Fermentas) to a final concentration of 1 U/μl, and incubation then continued for 45 min at 37° C. The reaction mixture was treated with DNase as in Method I. RNA transcripts were purified with NucAway Spin Columns (Ambion). The integrity of transcripts and quantitation was performed as in Method I.
(§1) A micrococcal nuclease-treated rabbit reticulocyte lysate system (Flexi Rabbit Reticulocyte Lysate System, Promega) was used for in vitro translation. Translation reactions were performed in 10 μl for 60 min at 30° C. A typical reaction mixture contained 40% reticulocyte lysate, the 20 “standard” amino acids (0.01 mM each), MgCl2 (1.2 mM), potassium acetate (170 mM), and mRNA (five different concentrations of each transcript, ranging from 0.25 to 4 μg/ml). Luciferase activity was measured in a luminometer (Glomax, Promega). Linear regression was used to fit the data points (luciferase activity versus concentration of mRNA transcript), and translational efficiency was defined as the slope of this line. The relative translational efficiencies of the test mRNAs were compared to that of m^7GpppG-capped luciferase mRNA, the latter being defined as 1.0.

[2] = test system: rabbit reticulocyte lysate system; test: In vitro translation efficiency of capped luciferase mRNA, method I transcripts; format: biochemical; conditions: for Translation efficiency in comparison with m^7GpppG-LUC mRNA, Experiment No. 1: experiment 1; for Translation efficiency in comparison with m^7GpppG-LUC mRNA, Experiment No. 2: experiment 2; for Translation efficiency in comparison with m^7GpppG-LUC mRNA, Experiment No. 3: experiment 3; for Translation efficiency in comparison with m^7GpppG-LUC mRNA, Mean: mean of experiments
Experimental: A DNA template for in vitro transcription was synthesized by PCR from the plasmid SP6p-5′UTR β-globin-LUCiferase. The template contained the SP6 promoter followed by the 5′-UTR sequence of rabbit β-globin mRNA and the entire firefly luciferase mRNA coding region. A typical in vitro transcription reaction mixture (50 μl) contained SP6 transcription buffer (Fermentas, cat. no. EP0131), 2 μg of DNA template, 2 U/μl RiboLock Ribonuclease Inhibitor (Fermentas), 2 mM each of ATP, CTP, and UTP, 0.1 mM GTP, and 1 mM dinucleotide cap analog. The reaction mixture was incubated at 37° C. for 5 min before the addition of SP6 RNA polymerase (Fermentas) to a final concentration of 2 U/μl. After 30 min of incubation at 37° C., GTP was added to a final concentration of 1 mM, and the reaction continued for an additional 90 min. The reaction mixtures were then treated with 1 U of DNase RQ1 (RNAse-free, Promega) per μg of template DNA in transcription buffer at 37° C. for 20 min. RNA transcripts were purified on DEPC-treated Sephadex G-50 spin columns (Pharmacia). The integrity of transcripts was confirmed by electrophoresis on a non-denaturating, 1% agarose gel. Concentrations were determined spectrophotometrically. The transcripts were stored at −80° C. until used.
as §1

[3] = 40 μM cap analog, 30° C., up to 120 min

Sequence of eIF4E (P63073 28-217 limits assumed): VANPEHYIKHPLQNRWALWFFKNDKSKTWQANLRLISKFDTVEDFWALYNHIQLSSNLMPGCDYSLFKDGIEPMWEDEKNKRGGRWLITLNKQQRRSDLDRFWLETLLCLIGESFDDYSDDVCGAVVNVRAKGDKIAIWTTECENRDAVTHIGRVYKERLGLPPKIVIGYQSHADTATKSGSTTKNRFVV

SMILES: CO[C@@H]1[C@H](O)[C@@H](COP(=O)(O)OP(=O)([O-])OP(=O)(O)OC[C@H]2O[C@@H](n3cnc4c(=O)[nH]c(N)nc43)[C@H](O)[C@@H]2O)O[C@H]1n1c[n+](C)c2c(O)nc(N)nc21 [m2^7,2′-OGpppG, reference compound]
- Cap analog-eIF4E affinity (KAS) (eIF4E; Table 3): 10.8 ± 0.3 μM^−1
- Cap analog/eIF4E affinity (KAS) (eIF4E): 10.8 ± 0.3 μM^−1
- Susceptibility to DcpS (Human DcpS; [3]): hydrolyzed
- Susceptibility to DcpS (Human DcpS; Table 3): hydrolyzed

SMILES: Nc1nc2c(ncn2[C@@H]2O[C@H](COP(=O)(O)OP(=O)(O)OP(=O)(O)OC[C@H]3O[C@@H](n4cnc5c(N)ncnc54)[C@H](O)[C@@H]3O)[C@@H](O)[C@H]2O)c(=O)[nH]1 [ApppG, reference compound]
- Translation efficiency in comparison to m^7GpppG-LUC-(A)31 mRNA, Experiment No. 1 ([1]; experiment 1): 0.27
- Translation efficiency in comparison to m^7GpppG-LUC-(A)31 mRNA, Experiment No. 2 ([1]; experiment 2): 0.16
- Translation efficiency in comparison to m^7GpppG-LUC-(A)31 mRNA, Experiment No. 3 ([1]; experiment 3): 0.14
- Translation efficiency in comparison to m^7GpppG-LUC-(A)31 mRNA, Experiment No. 4 [1]: 0.19
- Translation efficiency in comparison to m^7GpppG-LUC-(A)31 mRNA, Experiment No. 5 [1]: 0.18
- Translation efficiency in comparison to m^7GpppG-LUC-(A)31 mRNA, Mean [1]: 0.19
- Translation efficiency in comparison with m^7GpppG-LUC mRNA, Experiment No. 1 [2]: 0.34
- Translation efficiency in comparison with m^7GpppG-LUC mRNA, Experiment No. 2 [2]: 0.55
- Translation efficiency in comparison with m^7GpppG-LUC mRNA, Experiment No. 3 [2]: 0.53
- Translation efficiency in comparison with m^7GpppG-LUC mRNA, Experiment No. 4 ([2]; experiment 4): 0.48
- Translation efficiency in comparison with m^7GpppG-LUC mRNA, Mean [2]: 0.48

SMILES: [BH3-]P(=O)(OP(=O)(O)OCC1OC(n2cnc3c(=O)[nH]c(N)nc32)C(O)C1O)OP(=O)(O)OCC1OC(n2c[n+](C)c3c(=O)[nH]c(N)nc32)C(OC)C1O (single isomer, unassigned) [m2^7,2′-OGppBH3pG (D1), m2^7,2′-OGppBH3pG]
- Translation efficiency in comparison to m^7GpppG-LUC-(A)31 mRNA, Experiment No. 4 [1]: 1.87
- Translation efficiency in comparison to m^7GpppG-LUC-(A)31 mRNA, Experiment No. 5 [1]: 3.44
- Translation efficiency in comparison to m^7GpppG-LUC-(A)31 mRNA, Mean [1]: 2.66
- Cap analog/eIF4E affinity (KAS) (eIF4E): 39.4 ± 1.2 μM^−1
- Susceptibility to DcpS (Human DcpS; [3]): resistant

SMILES: [BH3-]P(=O)(OP(=O)(O)OCC1OC(n2cnc3c(=O)[nH]c(N)nc32)C(O)C1O)OP(=O)(O)OCC1OC(n2c[n+](C)c3c(=O)[nH]c(N)nc32)C(O)C1O (mixture of isomers) [m^7GppBH3pG]
- Translation efficiency in comparison with m^7GpppG-LUC mRNA, Experiment No. 1 [2]: 1.66
- Translation efficiency in comparison with m^7GpppG-LUC mRNA, Experiment No. 2 [2]: 1.42
- Translation efficiency in comparison with m^7GpppG-LUC mRNA, Experiment No. 3 [2]: 1.14
- Translation efficiency in comparison with m^7GpppG-LUC mRNA, Mean [2]: 1.41
- In vitro translational efficiency, method I ([2]; relative to m^7GpppG-capped luciferase mRNA = 1.0): 1.41 ± 0.26

SMILES: C[n+]1cn(C2OC(COP(O)(=[Se])OP(=O)([O-])OP(=O)(O)OCC3OC(n4cnc5c(=O)[nH]c(N)nc54)C(O)C3O)C(O)C2O)c2nc(N)[nH]c(=O)c21 (single isomer, unassigned) [m^7GpSeppG (D1), m^7GpSeppG]
- Susceptibility to DcpS (Human DcpS; Table 3): resistant

SMILES: C[n+]1cn(C2OC(COP(O)(=[Se])OP(=O)([O-])OP(=O)(O)OCC3OC(n4cnc5c(=O)[nH]c(N)nc54)C(O)C3O)C(O)C2O)c2nc(N)[nH]c(=O)c21 (single isomer, unassigned) [m^7GpSeppG (D2), m^7GpSeppG]
- Susceptibility to DcpS (Human DcpS; Table 3): resistant

SMILES: CO[C@@H]1[C@H](O)[C@@H](COP(=O)([O-])OP(O)(=S)OP(=O)(O)OC[C@H]2O[C@@H](n3cnc4c(=O)[nH]c(N)nc43)[C@H](O)[C@@H]2O)O[C@H]1[n+]1cn(C)c2c(=O)[nH]c(N)nc21 (single isomer, unassigned) [m2^7,2′-OGppSpG (D2), m2^7,2′-OGppSpG, reference compound]
- Translation efficiency in comparison to m^7GpppG-LUC-(A)31 mRNA, Experiment No. 4 [1]: 3.20
- Translation efficiency in comparison to m^7GpppG-LUC-(A)31 mRNA, Experiment No. 5 [1]: 3.02
- Translation efficiency in comparison to m^7GpppG-LUC-(A)31 mRNA, Mean [1]: 3.11

SMILES: C[n+]1cn([C@@H]2O[C@H](COP(=O)(O)OP(=O)(O)OP(=O)(O)OC[C@H]3O[C@@H](n4c[n+](C)c5c(=O)[nH]c(N)nc54)[C@H](O)[C@@H]3O)[C@@H](O)[C@H]2O)c2nc(N)[nH]c(=O)c21 [m^7Gpppm^7G, reference compound]
- Cap analog/eIF4E affinity (KAS) (eIF4E): 5.0 ± 0.2 μM^−1
- Susceptibility to DcpS (Human DcpS; [3]): hydrolyzed

SMILES: CO[C@@H]1[C@H](O)[C@@H](COP(=O)([O-])OP(O)(=S)OP(=O)(O)OC[C@H]2O[C@@H](n3cnc4c(=O)[nH]c(N)nc43)[C@H](O)[C@@H]2O)O[C@H]1[n+]1cn(C)c2c(=O)[nH]c(N)nc21 (single isomer, unassigned) [m2^7,2′-OGppSpG (D1), m2^7,2′-OGppSpG, reference compound]
- Translation efficiency in comparison to m^7GpppG-LUC-(A)31 mRNA, Experiment No. 4 [1]: 2.92
- Translation efficiency in comparison to m^7GpppG-LUC-(A)31 mRNA, Experiment No. 5 [1]: 2.83
- Translation efficiency in comparison to m^7GpppG-LUC-(A)31 mRNA, Mean [1]: 2.88
